{
  "source": "paper PMC8395040",
  "about": "(International Journal of Molecular Sciences, 2021)",
  "key": {"Solubility in water": {"test": "Solubility in water", "assay_type": "physicochemical"}, "AsPC-1": {"tested_on": "AsPC-1", "test": "MTT cytotoxicity assay, AsPC-1", "assay_type": "cell-based", "settings": "Homo sapiens, ASPC1, 72 h, 0.05–50 µM", "method": "(§1) Cytotoxicity assays were performed by using the MTT reduction method as described previously. Briefly, cancer cell lines were plated in flat-bottom 96-well plates at a cell concentration of 5 × 10^3 cells/well for the fastest growing lines, such as HEK293 and HT29 cells and 1 × 10^4 cells/well for more slowly growing lines, such as HCT116, H1975, BxPC-3, AsPC-1, B16-F10 and DAOY. Then, cells were incubated with the synthesised compounds at different concentrations (from 0.05 to 50 µM) in 200 µL with 10% FBS in RPMI 1640 or DMEM F12 culture medium at 37 °C for 72 h. Later, 10 µL of MTT were added at a final concentration of 0.5 mg/mL, incubated at 37 °C for 4 h, and then solubilised with 10% sodium dodecyl sulphate (SDS) in 0.1 mM HCl and incubated overnight at 37 °C. Formazan formation was measured at 570 nm in a multiwell plate reader (Cytation 5, Biotek Instruments, Winooski, VT, USA). Three independent biological replicates were performed."}, "human SMO D473H mutant": {"biological_target": "T1, human SMO D473H mutant (Homo sapiens, UniProt Q99835, D473H)", "T1 construct": "Myc; expressed in transfected cells; host or cells: HEK293T", "T1 sequence (Q99835 28-787 D473H)": "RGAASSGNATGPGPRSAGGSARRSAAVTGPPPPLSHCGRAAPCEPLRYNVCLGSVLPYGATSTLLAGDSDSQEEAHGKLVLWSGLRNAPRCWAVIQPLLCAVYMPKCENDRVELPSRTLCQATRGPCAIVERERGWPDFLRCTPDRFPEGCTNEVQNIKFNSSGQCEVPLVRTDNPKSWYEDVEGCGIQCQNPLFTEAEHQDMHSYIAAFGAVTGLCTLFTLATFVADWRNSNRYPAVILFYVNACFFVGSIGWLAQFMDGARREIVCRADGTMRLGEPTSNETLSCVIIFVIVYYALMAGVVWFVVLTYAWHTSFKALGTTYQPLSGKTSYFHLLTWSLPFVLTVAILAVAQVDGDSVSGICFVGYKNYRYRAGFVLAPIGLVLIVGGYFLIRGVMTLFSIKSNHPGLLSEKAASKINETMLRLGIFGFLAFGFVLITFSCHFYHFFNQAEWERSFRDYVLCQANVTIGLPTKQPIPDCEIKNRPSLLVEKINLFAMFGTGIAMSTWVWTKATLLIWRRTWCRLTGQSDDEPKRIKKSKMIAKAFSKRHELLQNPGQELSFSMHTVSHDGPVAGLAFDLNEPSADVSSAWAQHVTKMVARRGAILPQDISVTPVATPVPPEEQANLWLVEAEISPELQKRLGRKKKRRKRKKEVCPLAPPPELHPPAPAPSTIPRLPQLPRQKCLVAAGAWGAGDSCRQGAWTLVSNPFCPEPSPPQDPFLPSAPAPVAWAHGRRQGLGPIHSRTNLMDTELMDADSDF", "test": "BODIPY-cyclopamine displacement assay, SMO D473H", "assay_type": "binding", "method": "HEK293T cells were transfected with genes encoding human WT SMO tagged with Myc-DDK or human SMO D473H mutant tagged with Myc. Cells were washed in PBS supplemented with 0.5% FBS, fixed in 4% paraformaldehyde in PBS for 10 min, and incubated for 6 h at 37 °C in the same medium supplemented with BODIPY-cyclopamine (5 nM), with and without 4s at different concentrations ([…]). The cells were permeabilised with 0.2% Triton X-100 (Sigma, St. Louis, MO, USA). Dako Fluorescent Mounting solution (Dako, Carpinteria, CA, USA) was used as mounting medium and the Hoechst reagent for staining of cell nuclei. BODIPY (green) and Hoechst (blue) signals were analysed in three representative fields per coverslip (×20 magnification). Data were expressed as the percentage of BC incorporation observed with BC alone."}, "HEK293": {"tested_on": "HEK293", "test": "Cell cycle analysis (PI, flow cytometry), HEK293", "assay_type": "cell-based, human", "settings": "19 µM, 24 h", "method": "HT29 and HEK293 cells were plated in 6-well plates at a density of 2.0 × 10^5 cells/1.5 mL/well and grown overnight at 37 °C in a 5% CO2 humidified atmosphere. […] Aliquots of cells were collected, pelleted, washed, and fixed with ethanol (70% v/v) for at least 30 min at 4 °C. Cells were resuspended twice in PBS and, after centrifugation and elimination of the supernatant, they were finally resuspended in a PBS solution containing propidium iodide (PI; […], Invitrogen), RNase A ([…], Invitrogen). After a final incubation for 1 h in the dark at 37 °C, the PI signal was measured using a FACS Canto II Flow-cytometer (BD; Mountain View, CA) with a 488 nm excitation laser, captured and FACS DIVA was used as the acquisition software. The percentage of cells in each phase was analysed using the FCS Express v6 software. Two independent biological replicates were performed."}, "tumour cell lines": {"tested_on": "tumour cell lines", "test": "MTT cytotoxicity assay, summary over the tumour cell line panel", "assay_type": "cell-based, human", "method": "as §1"}, "[1]": {"tested_on": "Gli1 mRNA in Ptch1−/− mouse embryonic fibroblasts", "test": "Gli1 mRNA (qRT-PCR) in Ptch1−/− MEFs", "assay_type": "cell-based", "settings": "increasing concentrations, 24 h", "method": "HEK293T and Smo^−/−, Ptch^−/− MEFs cells were cultured in DMEM plus 10% FBS, 1% L-glutamine and antibiotics. Transient transfections were performed using DreamFectTM Gold transfection reagent (Oz Biosciences SAS, Marseille, France) following the manufacturer’s instructions and for varying periods of time depending on the experiment (24–72 h). […] Vehicle (DMSO) was used as control.\nTotal RNA was isolated with Trizol (Invitrogen/Life Technologies, Carlsbad, CA, USA) from Smo^−/− MEFs, Ptch^−/− MEFs or HT29 cells treated for 24 h and/or 48 h with 4s at different concentrations and reverse transcribed with the SensiFAST cDNA Synthesis Kit (Bioline Reagents Limited, London, UK). Quantitative real-time PCR (Q-PCR) analysis of Gli1 and housekeeping (HPRT, TBP, HMBS) mRNA levels was performed on each cDNA sample using the VIIA7 Real Time PCR System employing Assay-on-Demand Reagents (Life Technologies) as previously described. […] Each amplification reaction was performed in triplicate, the average of the three threshold cycles was used to calculate the amount of transcript in the sample (using SDS version 2.3 Software). mRNA quantification was expressed in arbitrary units as the ratio of the sample quantity to the quantity of the calibrator (ΔCt method). […]"}, "HCT116": {"tested_on": "HCT116", "test": "MTT cytotoxicity assay, HCT116", "assay_type": "cell-based", "settings": "Homo sapiens, HCT-116, 72 h, MTT; for cytotoxicity at 50 µM: read-out: % Cytotoxicity (50 µM) HCT116; for IC50: 0.05–50 µM", "method": "as §1"}, "[2]": {"tested_on": "Gli1 mRNA in WT MEFs stimulated with SAG", "test": "Gli1 mRNA (qRT-PCR) in SAG-stimulated WT MEFs", "assay_type": "cell-based, mouse", "settings": "10 µM, SAG 200 nM, 24 h"}, "Daoy": {"tested_on": "Daoy", "test": "MTT cytotoxicity assay, Daoy", "assay_type": "cell-based, human", "settings": "Homo sapiens, Daoy, 72 h, MTT; for cytotoxicity at 50 µM: read-out: % Cytotoxicity (50 µM) DAOY"}, "[3]": {"tested_on": "GLI1-responsive luciferase reporter in HCT116 cells", "test": "HH-dependent GLI luciferase reporter assay in HCT116", "assay_type": "cell-based, human", "settings": "24 h, 4s 1.5 µM, vismodegib 1 µM; for activation induced by the agonist purmorphamine: purmorphamine 20 µM", "method": "Luciferase and renilla activity were assayed with a dual-luciferase assay system according to the manufacturer’s instructions (Cignal Reporter Gli-luciferase, ADN, Qiagen, Hilden, Germany). Results were expressed as luciferase/renilla ratios and represent the mean of triplicate values in one assay.\nSupplemental Figure S2: Luciferase reporter activity dependent on the Hh pathway.\nThis assay was performed in HCT116 cells stably transformed with a Gli responsive luciferase reporter gene and a renilla luciferase gene (normalization control), treated for 24 […]\nrenilla activity were assayed with the dual-luciferase assay system Cignal Reporter Gli - luciferase (ADN, Qiagen). Results are expressed as luciferase/renilla activity ratios and represent the mean of triplicate values from one assay. […]\n(1 picture or pasted object on this page, not shown here)"}},
  "data": [
    {"smiles": "CCCCCCn1cnc2c(-c3ccc(OC(F)(F)F)cc3)nc(N3CCN(c4ccncc4)CC3)nc21", "note": "[Compound 4s, 9-Hexyl-2-(4-(pyridin-4-yl)piperazin-1-yl)-6-(4-(trifluoromethoxy)phenyl)-9H-purine]", "values": [
      {"measurement": "solubility in water", "setting": "Solubility in water", "value": "poor"},
      {"measurement": "IC50", "setting": "AsPC-1", "value": "1700 ± 50", "unit": "nM"},
      {"measurement": "concentration above which toxic to SMO-D473H cells", "setting": "human SMO D473H mutant; HEK293T expressing SMO-D473H", "value": "above 5 µM"},
      {"measurement": "binding to the SMO-D473H mutant receptor", "setting": "human SMO D473H mutant; HEK293T expressing SMO-D473H, up to 5 µM", "value": "dose-dependent inhibition of binding"},
      {"measurement": "decrease of binding affinity with SMO-D473H mutant compared to WT SMO", "setting": "human SMO D473H mutant; suggested, no IC50 determinable", "value": "about 25%"},
      {"measurement": "changes in cell cycle, HEK293", "setting": "HEK293", "value": "did not observe any changes"},
      {"measurement": "selectivity for cancer cells compared to HEK293 control cells", "setting": "tumour cell lines", "value": 40, "unit": "times"},
      {"measurement": "cytotoxicity in tumour cell lines", "setting": "tumour cell lines; 50 µM, 72 h, MTT, tumour cell lines tested", "value": "more than 80%"},
      {"measurement": "IC50", "setting": "tumour cell lines; Homo sapiens, depending on the tumour cell line, 72 h, read-out: IC50 range over tumour cell lines", "value": "1300 to 15000", "unit": "nM"},
      {"measurement": "fold increase in cytotoxicity compared to vismodegib", "setting": "tumour cell lines; from IC50 values", "value": "~40", "unit": "fold"},
      {"measurement": "GLI1 mRNA levels in Ptch1−/− MEFs", "setting": "[1]", "value": "significantly reduced mRNA levels of GLI1"},
      {"measurement": "cytotoxicity at 50 µM", "setting": "HCT116", "value": "99 ± 0.4", "unit": "%"},
      {"measurement": "IC50", "setting": "HCT116", "value": "1300 ± 400", "unit": "nM"},
      {"measurement": "Gli-1 expression in WT MEF cells stimulated with SAG", "setting": "[2]", "value": "inhibited Gli-1 expression"},
      {"measurement": "cytotoxicity at 50 µM", "setting": "Daoy", "value": "98 ± 0.3", "unit": "%"},
      {"measurement": "basal GLI1 transcription activity", "setting": "[3]", "value": "did not affect basal GLI1 transcription activity"},
      {"measurement": "activation induced by the agonist purmorphamine", "setting": "[3]", "value": "effectively reduced the activation"}
    ]},
    {"smiles": "CS(=O)(=O)c1ccc(C(=O)Nc2ccc(Cl)c(-c3ccccn3)c2)c(Cl)c1", "note": "[Vismodegib, reference compound]", "values": [
      {"measurement": "IC50", "setting": "AsPC-1", "value": "> 50000", "unit": "nM"},
      {"measurement": "cytotoxicity at 50 µM", "setting": "HCT116", "value": "< 50", "unit": "%"},
      {"measurement": "IC50", "setting": "HCT116", "value": "> 50000", "unit": "nM"},
      {"measurement": "IC50", "setting": "Daoy; 0.05–50 µM", "value": "> 50000", "unit": "nM"},
      {"measurement": "cytotoxicity at 50 µM", "setting": "Daoy", "value": "< 50", "unit": "%"},
      {"measurement": "basal GLI1 transcription activity", "setting": "[3]", "value": "did not affect basal GLI1 transcription activity"},
      {"measurement": "activation induced by the agonist purmorphamine", "setting": "[3]", "value": "effectively reduced the activation"}
    ]}
  ]
}
